What was measured:
[1] = target: T1, rhPRDX1 (PRDX1) (Homo sapiens, UniProt Q06830); test: H2O2 reduction assay, residual H2O2 kit; type: biochemical; details: 20 μM protein, 30 min preincubation, 100 μM H2O2, RT
T1 construct: pET28a His-tagged, expressed in E. coli BL21, His-purified; homodimer in docking model; endogenous protein of U2932 lysate in the Biotin-ART pull-down
T1 sequence (Q06830 2-199): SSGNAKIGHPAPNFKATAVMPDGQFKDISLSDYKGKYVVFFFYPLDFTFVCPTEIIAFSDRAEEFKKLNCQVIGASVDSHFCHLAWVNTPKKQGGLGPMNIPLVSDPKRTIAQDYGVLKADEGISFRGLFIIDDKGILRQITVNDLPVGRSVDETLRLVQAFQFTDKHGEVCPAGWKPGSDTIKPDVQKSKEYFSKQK

[2] = target: T1, rhPRDX1 (PRDX1); test: intrinsic fluorescence titration, Hill plot; type: binding
[3] = target: T2, rhPRDX2 (PRDX2) (Homo sapiens, UniProt P32119); test: intrinsic fluorescence titration, Hill plot; type: binding
T2 construct: pET28a His-tagged, expressed in E. coli Rosetta, His-purified; decamer in docking model; endogenous protein of U2932 lysate in the Biotin-ART pull-down
T2 sequence (P32119 2-198): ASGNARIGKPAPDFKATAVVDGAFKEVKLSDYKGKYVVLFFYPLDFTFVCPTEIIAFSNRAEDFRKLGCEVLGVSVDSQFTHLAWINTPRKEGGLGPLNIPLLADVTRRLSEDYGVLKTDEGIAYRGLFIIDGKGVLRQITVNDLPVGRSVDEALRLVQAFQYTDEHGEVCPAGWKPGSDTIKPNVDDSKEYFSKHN

[4] = target: T2, rhPRDX2 (PRDX2); test: CD thermal denaturation; type: binding; details: 10 μM protein, 1 mM ART, 20 mM Tris-HCl

C[C@H]1[C@H](OC(=O)CCC(=O)O)O[C@@H]2O[C@@]3(C)CC[C@H]4[C@H](C)CC[C@@H]1[C@@]24OO3 [Artesunate] was tested, and the “H2O2 reduction assay, residual H2O2 kit” value [1] was “ART suppressed the peroxidase activity of rhPRDX1 and rhPRDX2 in a dose-dependent manner”, the Kd [2] was 6.1 µM and the Kd [3] was 5.24 µM. The “Tm (without to with ART)” value [4] was 57 to 61 °C.

Source: paper PMC12254379, “Artesunate induces ferroptosis in diffuse large B-cell lymphoma cells by targeting PRDX1 and PRDX2” (Cell Death & Disease, 2025)
